Experimental data published in patent US12139487B2, “Compounds and uses thereof” (Foghorn Therapeutics Inc., priority 2022, dated 2024).
One block for each molecule: values may come before it.

How the values were obtained:
[1] = biological target: T1, BRM (Homo sapiens, UniProt P51531); assay: ATPase catalytic activity assay (ADP-Glo), BRM; type: biochemical; details: Table 10; for Ratio (BRG1 IC50 (μM) divided by BRM IC50 (μM)): ATPase assay, selectivity BRG1/BRM; for IC50: ATPase catalytic activity assay (ADP-Glo)
T1 construct: made in house; host or cells: High Five insect cells
T1 sequence (P51531 whole entry): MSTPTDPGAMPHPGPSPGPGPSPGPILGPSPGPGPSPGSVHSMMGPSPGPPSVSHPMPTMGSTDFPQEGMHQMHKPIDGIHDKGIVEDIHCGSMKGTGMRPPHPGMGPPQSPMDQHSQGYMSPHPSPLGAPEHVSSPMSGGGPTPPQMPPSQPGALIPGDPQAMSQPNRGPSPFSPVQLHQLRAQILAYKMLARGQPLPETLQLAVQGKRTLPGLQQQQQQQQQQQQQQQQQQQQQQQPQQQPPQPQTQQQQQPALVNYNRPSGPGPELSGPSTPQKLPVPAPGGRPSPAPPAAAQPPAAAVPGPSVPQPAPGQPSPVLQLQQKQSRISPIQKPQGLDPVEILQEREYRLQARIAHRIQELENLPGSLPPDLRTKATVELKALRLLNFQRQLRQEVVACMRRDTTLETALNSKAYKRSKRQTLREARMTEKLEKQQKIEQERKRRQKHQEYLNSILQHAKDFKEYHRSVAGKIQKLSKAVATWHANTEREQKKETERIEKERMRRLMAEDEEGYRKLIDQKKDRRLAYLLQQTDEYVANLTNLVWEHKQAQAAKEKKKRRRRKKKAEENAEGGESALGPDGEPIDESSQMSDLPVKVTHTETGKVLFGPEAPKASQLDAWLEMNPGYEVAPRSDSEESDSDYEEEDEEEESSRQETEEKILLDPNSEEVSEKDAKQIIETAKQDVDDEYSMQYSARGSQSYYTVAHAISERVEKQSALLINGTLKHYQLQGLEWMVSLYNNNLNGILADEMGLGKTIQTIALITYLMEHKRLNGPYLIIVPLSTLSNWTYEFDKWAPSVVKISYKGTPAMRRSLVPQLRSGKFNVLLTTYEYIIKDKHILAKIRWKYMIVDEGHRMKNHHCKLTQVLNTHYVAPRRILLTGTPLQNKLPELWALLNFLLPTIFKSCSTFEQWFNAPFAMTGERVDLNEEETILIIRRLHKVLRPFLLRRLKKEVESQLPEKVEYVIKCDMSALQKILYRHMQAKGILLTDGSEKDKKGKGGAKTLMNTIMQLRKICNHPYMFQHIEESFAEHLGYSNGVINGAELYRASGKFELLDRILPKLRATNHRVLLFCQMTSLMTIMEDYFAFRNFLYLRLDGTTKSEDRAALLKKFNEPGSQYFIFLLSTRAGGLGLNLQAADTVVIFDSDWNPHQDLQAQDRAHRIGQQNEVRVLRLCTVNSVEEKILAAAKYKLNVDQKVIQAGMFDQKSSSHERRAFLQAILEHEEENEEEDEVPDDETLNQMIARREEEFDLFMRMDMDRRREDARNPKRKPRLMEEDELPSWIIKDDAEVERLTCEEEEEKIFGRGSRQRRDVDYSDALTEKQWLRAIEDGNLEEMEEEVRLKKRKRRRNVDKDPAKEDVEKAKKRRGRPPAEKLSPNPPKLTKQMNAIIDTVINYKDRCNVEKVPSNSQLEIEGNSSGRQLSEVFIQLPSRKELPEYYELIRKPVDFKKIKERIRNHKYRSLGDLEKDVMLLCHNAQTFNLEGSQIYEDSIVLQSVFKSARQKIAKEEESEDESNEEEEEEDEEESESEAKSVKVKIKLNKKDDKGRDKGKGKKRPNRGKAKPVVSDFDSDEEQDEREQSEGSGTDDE
Outline: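 ADP-Glo luminescence measures ADP produced by BRM ATPase (30 nM) during 1 h at room temperature. ATP is 400 μM, with 20 nM salmon sperm DNA as cofactor. Buffer: 20 mM Tris pH 8, 20 mM MgCl2, 50 mM NaCl, 0.1% Tween-20, 1 mM DTT.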

[2] = biological target: T2, BRG-1 (Homo sapiens, UniProt P51532); assay: ATPase catalytic activity assay (ADP-Glo), BRG-1; type: biochemical; details: Table 10, read-out: BRG1 IC50
T2 construct: made in house; host or cells: High Five insect cells
T2 sequence (P51532 whole entry): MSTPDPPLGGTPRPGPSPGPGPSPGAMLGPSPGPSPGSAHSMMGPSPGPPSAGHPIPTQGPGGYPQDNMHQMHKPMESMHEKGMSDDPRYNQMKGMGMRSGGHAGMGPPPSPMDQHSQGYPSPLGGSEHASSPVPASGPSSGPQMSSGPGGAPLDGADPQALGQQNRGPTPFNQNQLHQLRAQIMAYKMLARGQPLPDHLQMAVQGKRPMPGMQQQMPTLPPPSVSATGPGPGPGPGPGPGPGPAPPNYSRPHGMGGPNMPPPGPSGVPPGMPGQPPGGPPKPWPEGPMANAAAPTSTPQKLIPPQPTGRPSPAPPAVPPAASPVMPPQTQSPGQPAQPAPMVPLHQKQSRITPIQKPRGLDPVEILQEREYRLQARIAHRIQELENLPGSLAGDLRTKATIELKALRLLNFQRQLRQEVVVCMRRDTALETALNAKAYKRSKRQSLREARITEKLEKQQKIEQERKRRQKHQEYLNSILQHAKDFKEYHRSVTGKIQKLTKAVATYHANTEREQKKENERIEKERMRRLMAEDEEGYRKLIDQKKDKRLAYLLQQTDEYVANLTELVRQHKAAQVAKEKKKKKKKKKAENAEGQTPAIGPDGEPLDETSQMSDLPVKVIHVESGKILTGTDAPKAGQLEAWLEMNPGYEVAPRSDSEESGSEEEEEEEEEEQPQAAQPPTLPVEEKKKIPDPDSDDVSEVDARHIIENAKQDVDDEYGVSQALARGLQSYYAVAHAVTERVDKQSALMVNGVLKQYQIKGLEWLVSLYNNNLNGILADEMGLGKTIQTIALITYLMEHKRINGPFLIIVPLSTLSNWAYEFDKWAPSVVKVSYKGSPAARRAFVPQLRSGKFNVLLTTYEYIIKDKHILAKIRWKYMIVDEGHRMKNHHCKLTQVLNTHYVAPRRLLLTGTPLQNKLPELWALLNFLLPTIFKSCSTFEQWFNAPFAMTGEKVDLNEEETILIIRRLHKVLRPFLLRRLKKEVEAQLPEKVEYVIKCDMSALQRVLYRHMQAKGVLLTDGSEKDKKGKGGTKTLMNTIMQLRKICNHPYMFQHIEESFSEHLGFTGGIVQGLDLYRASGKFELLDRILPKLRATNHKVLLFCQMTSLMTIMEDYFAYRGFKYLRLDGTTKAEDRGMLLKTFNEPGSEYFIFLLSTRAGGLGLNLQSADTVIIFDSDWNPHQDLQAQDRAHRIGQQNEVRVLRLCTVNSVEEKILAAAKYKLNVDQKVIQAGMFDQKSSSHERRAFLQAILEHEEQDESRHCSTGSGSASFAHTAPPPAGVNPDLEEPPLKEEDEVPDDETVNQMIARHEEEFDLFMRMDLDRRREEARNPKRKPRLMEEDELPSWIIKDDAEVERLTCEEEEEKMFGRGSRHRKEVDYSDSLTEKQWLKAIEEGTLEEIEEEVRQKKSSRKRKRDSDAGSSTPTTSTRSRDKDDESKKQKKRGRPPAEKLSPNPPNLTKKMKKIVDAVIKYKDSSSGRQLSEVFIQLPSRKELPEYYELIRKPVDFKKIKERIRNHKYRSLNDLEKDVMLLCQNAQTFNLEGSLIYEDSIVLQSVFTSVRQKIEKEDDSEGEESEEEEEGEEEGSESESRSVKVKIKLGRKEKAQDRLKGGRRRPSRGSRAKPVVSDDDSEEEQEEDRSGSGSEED
Outline: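 In this in vitro format, BRG-1 hydrolysis product ADP is detected via a two-step ADP-Glo workup (ATP removal, then ADP-to-ATP conversion with luciferase detection) followed by a luminescence read.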

[3] = tested on: uveal melanoma and hematologic cancer cell lines versus other tested cell lines; assay: Growth of uveal melanoma, hematological and other cancer cell lines with Compound A (Cell-titer glo, day 3 and day 7, GI50); type: cell-based; details: day 7
Procedure: (§1) Procedure: Uveal melanoma cell lines (92-1, MP41, MP38, MP46), prostate cancer cell lines (LNCAP), lung cancer cell lines (NCI-H1299), and immortalized embryonic kidney lines (HEK293T) were plated into 96 well plates with growth media (see Table 9). […] Cells were incubated at 37 degrees Celsius for 3 days. After three days of treatment, the media was removed from the cells and 30 microliters of TrypLE (Gibco) was added to cells for 10 minutes. Cells were detached from the plates and resuspended with the addition of 170 microliters of growth media. Cells from two DMSO-treated control wells were counted, and the initial number of cells plated at the start of the experiment, were re-plated into fresh-compound containing plates for an additional four days at 37 degrees Celsius. At day 7, cells were harvested as described above. On day 3 and day 7, relative cell growth was measured by the addition of Cell-titer glo (Promega) and luminescence was measured on an Envision plate reader (Perkin Elmer). […] At the time of cell splitting on days 3 and 7, cells were split into new 96 well plates, and fresh compound was added four hours after re-plating.

[4] = tested on: uveal melanoma cell lines 92-1 and MP41; assay: Comparison of Compound A with clinical PKC and MEK inhibitors in uveal melanoma cell lines (3 day growth); type: cell-based; details: vs LXS196 and Selumetinib
Procedure: Procedure: Uveal melanoma cell lines, 92-1 or MP41, were plated in 96 well plates in the presence of growth media (see […]). […] Cells were incubated at 37 degrees Celsius for 3 days. After three days of treatment, cell growth was measured with Cell-titer glow (Promega), and luminescence was read on an Envision plate reader (Perkin Elmer).

[5] = tested on: uveal melanoma, hematologic cancer, prostate cancer, breast cancer and Ewing's sarcoma cell lines versus other tested cell lines; assay: Growth of uveal melanoma, hematological, prostate, breast cancer and Ewing's sarcoma cell lines with Compound B (day 3 and day 7); type: cell-based
Procedure: as §1
Procedure: All cell lines described above in Example 4 were also tested as described above with Compound B. In addition, the following cell lines were also tested as follows. […]

[6] = tested on: uveal melanoma cell lines (92-1, MP41, MP38, MP46); assay: Growth of uveal melanoma and non-small cell lung cancer cell lines (3 day, Cell-titer glow); type: cell-based; details: 3 days; 0 to 10 micromolar; FIG. 5
Procedure: Procedure: Uveal melanoma cell lines (92-1, MP41, MP38, MP46) and Non-small cell lung cancer cells (NCIH1299) were plated into 96 well plates with growth media (see Table 9). BRG1/BRM ATPase inhibitor, compound 67, was dissolved in DMSO and added to the cells in a concentration gradient from 0 to 10 micromolar at the time of plating. Cells were incubated at 37° C. for 3 days. After three days of treatment, cell growth was measured with Cell-titer glow (Promega), and luminescence was read on an Envision plate reader (Perkin Elmer).

[7] = tested on: uveal melanoma cell lines 92-1 and MP41; assay: Comparison of Compound B with clinical PKC and MEK inhibitors in uveal melanoma cell lines (3 day growth); type: cell-based; details: vs LXS196 and Selumetinib
Procedure: Procedure: Uveal melanoma cell lines, 92-1 or MP41, were plated in 96 well plates in the presence of growth media (see Table 9). BAF ATPase inhibitor (Compound B), PKC inhibitor (LXS196; MedChemExpress), and MEK inhibitor (Selumetinib; Selleck Chemicals) were dissolved in DMSO and added to the cells in a concentration gradient from 0 to 10 micromolar at the time of plating. Cells were incubated at 37° C. for 3 days. After three days of treatment, cell growth was measured with Cell-titer glow (Promega), and luminescence was read on an Envision plate reader (Perkin Elmer).

[8] = tested on: parental MP41 and PKCi-resistant MP41 uveal melanoma cells; assay: 7-day growth inhibition assay in parental and PKC inhibitor-resistant MP41 cells; type: cell-based
Procedure: Procedure: MP41 uveal melanoma cells were made resistant to the PKC inhibitor (LXS196; MedChemExpress), by long-term culture in growth media (see Table 9) containing increasing concentrations of the compound, up to 1 micromolar. After 3 months, sensitivity of the parental MP41 cells and the PKC inhibitor (PKCi)-resistant cells to the PKC inhibitor (LXS196) or the BRG1/BRM ATPase inhibitor (Compound B) was tested in a 7-day growth inhibition assay as described above in Example 6.

[9] = tested on: 92-1 uveal melanoma cells (subcutaneous tumors); assay: 92-1 uveal melanoma xenograft tumor growth in nude mice; type: in vivo; details: 3 weeks
Procedure: Procedure: Nude mice (Envigo) were engrafted subcutaneously in the axillary region with 5×10^6 92-1 uveal melanoma cells in 50% Matrigel. Tumors were grown to a mean of ˜200 mm^3, at which point mice were grouped and dosing was initiated. Mice were dosed once daily by oral gavage with vehicle (20% 2-Hydroxypropyl-β-Cyclodextrin) or increasing doses of Compound C. Tumor volumes and body weights were measured over the course of 3 weeks, and doses were adjusted by body weight to achieve the proper dose in terms of mg/kg. At this time, animals were sacrificed, and tumors were dissected and imaged.

Structure (SMILES): CSCC[C@H](NC(=O)c1ccc(N)cc1)C(=O)Nc1nc(-c2cccc(-c3ccncc3)c2)cs1 [Compound A]
duration of growth inhibition [3]: maintained through day 7 | growth inhibition compared with clinical PKC and MEK inhibitors ([4]; 3 days, FIG. 2A, 2B): comparable growth inhibition | onset of inhibition compared with clinical PKC and MEK inhibitors [4]: faster onset of inhibition

Structure (SMILES): CSCC[C@H](NC(=O)c1ccn(S(C)(=O)=O)c1)C(=O)Nc1nc(-c2cccc(-c3ccncc3)c2)cs1 [Compound B, (S)-1-(methylsulfonyl)-N-(4-(methylthio)-1-oxo-1-((4-(3-(pyridin-4-yl)phenyl)thiazol-2-yl)amino)butan-2-yl)-1H-pyrrole-3-carboxamide]
sensitivity of cell lines to BRG1/BRM inhibition (growth) ([5]; breast cancer and Ewing's sarcoma cell lines vs other tested cell lines, FIG. 3): more sensitive to BRG1/BRM inhibition than the other tested cell lines | duration of growth inhibition ([5]; breast cancer and Ewing's sarcoma cell lines, day 7): maintained through day 7 | growth inhibition in uveal melanoma cell lines [6]: potent growth inhibition | growth inhibition compared with clinical PKC and MEK inhibitors ([7]; 3 days, FIG. 6A, 6B): more potent effects on growth inhibition | onset of growth inhibition compared with clinical PKC and MEK inhibitors [7]: faster onset of growth inhibition | sensitivity of PKCi-resistant cells relative to parental MP41 cells ([8]; FIG. 7B): more sensitive to Compound B than were the parental MP41 cells | growth inhibition of PKCi-resistant and parental cell lines ([8]; both PKCi-resistant and parental MP41, FIG. 7B): strong growth inhibition

Structure (SMILES): C[C@@H]1CN(c2cccc(-c3csc(NC(=O)CNC(=O)c4ccn(C(C)(C)C)c4)n3)n2)C[C@H](C)O1 [Compound C, 1-(tert-butyl)-N-(2-((4-(6-(cis-2,6-dimethylmorpholino)pyridin-2-yl)thiazol-2-yl)amino)-2-oxoethyl)-1H-pyrrole-3-carboxamide]
tumor response at the highest dose ([9]; 50 mg/kg, once daily oral gavage): tumor regression | tolerability / body weight ([9]; all treatments, FIG. 8C): well tolerated with no body weight loss observed | tumor growth inhibition ([9]; once daily oral gavage, increasing doses, FIG. 8A, 8B): tumor growth inhibition in a dose-dependent manner

Structure (SMILES): CC1(N)CCN(c2cccnc2NC(=O)c2nc(-c3ncccc3C(F)(F)F)cnc2N)CC1 [LXS196]
growth of PKCi-resistant cells relative to parental MP41 cell line ([8]; FIG. 7A): could tolerate growth at higher concentrations of LXS196

The next lines start with the values.

Ratio (BRG1 IC50 (μM) divided by BRM IC50 (μM)) [1]: 22.15 | IC50 [1]: 0.0161 µM | IC50 [2]: 0.357 µM
Structure (SMILES): Cc1cc(C(=O)NCc2cc3nc(-c4ccc(OC(F)F)c(C5CC5)n4)ccc3cn2)cc2c1OCC[C@H](F)S2(=O)=O [Compound 324]

Ratio (BRG1 IC50 (μM) divided by BRM IC50 (μM)) [1]: 28.75 | IC50 [1]: 0.122 µM | IC50 [2]: 3.51 µM
Structure (SMILES): C[C@@H]1CN(c2cccc(-c3ccc4cnc(CNC(=O)c5cc(F)c6c(c5)S(=O)(=O)[C@@H](F)CO6)cc4n3)n2)C[C@H](C)O1 [Compound 326]

IC50 [1]: 0.0035 µM | IC50 [2]: 0.0407 µM
Structure (SMILES): O=C(NCc1cc2nc(-c3cccc(C4CC4)n3)ccc2cn1)c1cc(F)c2c(c1)S(=O)(=O)[C@@H](F)CCOC2 [Compound 327]

Ratio (BRG1 IC50 (μM) divided by BRM IC50 (μM)) [1]: 29.97 | IC50 [1]: 0.0241 µM | IC50 [2]: 0.723 µM
Structure (SMILES): COc1nc([C@@H](C)C(F)F)ccc1-c1ccc2cnc(CNC(=O)c3cc(F)c4c(c3)S(=O)(=O)[C@@H](F)CCO4)cc2n1 [Compound 328]
